# Experimental data reported in BindingDB's records for doi:10.1038/sj.bjp.0705908 (Abbott Laboratories, 2004).
# Target: T1, Calcium-activated potassium channel subunit beta (Sus scrofa, UniProt C0KY85)
# T1 sequence (C0KY85 whole entry): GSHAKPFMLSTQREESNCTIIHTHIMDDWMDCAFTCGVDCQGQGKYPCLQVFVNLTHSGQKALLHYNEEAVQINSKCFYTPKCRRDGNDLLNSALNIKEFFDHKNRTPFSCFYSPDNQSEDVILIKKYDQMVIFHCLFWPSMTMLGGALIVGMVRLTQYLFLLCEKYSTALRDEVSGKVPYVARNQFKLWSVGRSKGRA
smiles,measurement,value
CCC(C)(C)NC(=NC#N)Nc1cccnc1 [NSC_43345],Ki,10.7 nM
